In general, IC50 refers to the concentration needed to halve the response being measured.

Among the data in ChEMBL document CHEMBL5356988, “Diversely functionalized isoquinolines and their core-embedded heterocyclic frameworks: a privileged scaffold for medicinal chemistry” (RSC Med Chem, 2023) are IC50 values, retold here.

In one assay the test system is HGC-27. Nature of the assay: Antiproliferative activity against human HGC-27 cells assessed as reduction in cell viability by CCK-8 assay. The class given is functional, cell-based.
Another assay addresses T1, Interleukin-5 (Homo sapiens, UniProt P05113).
T1 sequence (P05113 whole entry): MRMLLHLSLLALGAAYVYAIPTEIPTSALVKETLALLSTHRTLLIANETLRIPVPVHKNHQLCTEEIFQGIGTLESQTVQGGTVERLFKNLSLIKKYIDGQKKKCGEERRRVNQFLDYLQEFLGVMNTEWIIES
Nature of the assay: Inhibition of IL-5 (unknown origin).

`Fc1ccc(/C=C/c2nccc3ccccc23)cc1F`: the 50% inhibitory concentration (IC50) in the assay on HGC-27 came to 80 nM.

On Interleukin-5, `C=C1Oc2c(ccc3cc(C)ncc23)C1=O` returned an IC50 of 2000 nM.

In the case of `Fc1ccc(/C=C/c2nccc3ccccc23)c(F)c1`, the 50% inhibitory concentration (IC50) with HGC-27 amounted to 40 nM.
